Patent US20230218710A1, “METHOD OF TREATING CORONAVIRUS INFECTIONS” (priority 2020, published 2023)
Marks after values point to notes of the source that are not given here.

How the values were obtained:
[1] = tested on: LPS-induced acute lung injury mouse model; assay: LPS-induced acute lung injury model in mouse (Example 6); type: in vivo, mice; settings: histopathology, 24 h after LPS, 5 mg/kg i.p.
Protocol: The effect of the peptides of the current invention on acute lung injury can be assessed in an LPS-induced acute lung injury mouse model by monitoring outcomes such as lung weight, fluid accumulation, cytokine secretion in blood or bronchoalveolar lavage fluid (BALF), neutrophil infiltration into lung tissues, and assessment of acute lung injury score by histopathology. Acute lung injury was induced in male C57BL/6 mice (6 to 8 weeks old) by intratracheal administration of 40 μL lipopolysaccharide (LPS) (Sigma Aldrich, St. Louis, Mo.) in PBS at 5 mg/kg. Control animals received intratracheal PBS alone. […] Treatments were administered 1 h prior to LPS for animals designated for sacrifice at 4 h after LPS, or at both 1 h prior to and 6 h after LPS for animals designated for sacrifice at 24 h after LPS. At 4 or 24 hours post LPS administration, tissues were harvested. Lungs were weighed, flushed with Hanks Buffer to provide bronchoalveolar lavage fluid (BALF). Lungs were fixed in 10% neutral buffered formalin (NBF) for histopathology. Tissue slides were stained with hematoxylin and eosin (H&E) and evaluated and scored with light microscopy of 5 representative microscopic fields (100× magnification) scoring on a 0-5 scale using standard methods (Matute-Bello G et al 2011. An Official American Thoracic Society Workshop Report: Features and Measurements of Experimental Acute Lung Injury in Animals. Am J Respir Cell Mol Biol 44:725-38). The average score for five fields was calculated for each animal. Levels of pro-inflammatory cytokines in BALF were determined using a meso scale discovery (MSD) system. Data for test peptides were compared to the vehicle control group. Lung weights were normalized to body weight.

[2] = target: T1, Apelin Receptor (APJ) (Homo sapiens, UniProt P35414); assay: Phosphorylation of MEK1 in cultured cells overexpressing APJ; type: cell-based; settings: 5 min, 100 nM Pyr-Apelin-13 = positive control, acetate salts
T1 construct: host or cells: CHO-K1 AGTRL1 Gi cells
T1 sequence (P35414 1-380): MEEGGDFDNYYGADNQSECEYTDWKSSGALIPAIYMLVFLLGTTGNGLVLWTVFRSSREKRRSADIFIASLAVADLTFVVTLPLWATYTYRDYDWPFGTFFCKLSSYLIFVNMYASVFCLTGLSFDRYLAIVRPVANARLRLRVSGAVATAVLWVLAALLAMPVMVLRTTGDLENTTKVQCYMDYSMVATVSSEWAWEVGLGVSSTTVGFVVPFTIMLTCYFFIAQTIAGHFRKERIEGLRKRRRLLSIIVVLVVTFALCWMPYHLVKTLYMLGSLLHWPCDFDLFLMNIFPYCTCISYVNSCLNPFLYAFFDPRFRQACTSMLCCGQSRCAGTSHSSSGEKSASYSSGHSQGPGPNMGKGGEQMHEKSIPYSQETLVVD
Protocol: Peptides were initially prepared as 100× stocks in H2O. […] Following a 5 min incubation, the supernatant was removed and the cells were placed on ice and washed twice with cold HBSS. The HBSS was removed and the cells were immediately lysed in 300 μl/well of 1× lysis buffer (CST 10× Lysis Buffer; Cell Signaling Technology; Danvers, Mass.); lysis buffer was supplemented with 1 mM PMSF (Millipore-Sigma; Saint Louis, Mo.) and Halt Protease/Phosphatase Inhibitor Cocktail (Thermo-Fisher; Waltham, Mass.) prior to use. The samples were then placed on ice for 10 min, the wells were scraped and lysates were centrifuged at 12,500 rpm for 10 min at 4° C., and p-MEK expression in each sample was measured using Phospho-MEK1 (Ser217/221) Sandwich ELISA kit according to manufacturer's instructions (Cell Signaling Technology; Danvers, Mass.). Absorbance was measured using a Cytation 3 plate reader at […] (BioTek; Winooski, Vt.). […] Each data point represents the average of duplicate assays.

[3] = tested on: LPS-induced acute lung injury mouse model; assay: LPS-induced acute lung injury model in mouse (Example 7); type: in vivo, mice; settings: 4 h after LPS, 5 mg/kg i.p.
Protocol: The effect of the peptides of the current invention on acute lung injury can be assessed in an LPS-induced acute lung injury mouse model by monitoring outcomes such as lung weight, fluid accumulation, cytokine secretion in blood or bronchoalveolar lavage fluid (BALF). Acute lung injury was induced in male C57BL/6 mice (6 to 8 weeks old) by intratracheal administration of 40 μL lipopolysaccharide (LPS) (Sigma Aldrich, St. Louis, Mo.) in PBS at 5 mg/kg. Control animals received intratracheal PBS alone. Animals (n=8 per treatment group) induced with LPS received intraperitoneal treatment with: PBS (vehicle control) or test peptides at 5 mg/kg in water. Treatments were administered 1 h prior to LPS. At 4 h post LPS administration, tissues were harvested. Lungs were weighed, flushed with Hanks Buffer to provide bronchoalveolar lavage fluid (BALF). Data for test peptides were compared to the vehicle control group. Table 11 compares the lung weights following LPS induction and treatment with PBS (vehicle control) or peptides. Table 12 compares the levels of pro-inflammatory cytokines in BALF following LPS induction and treatment with PBS (vehicle control) or peptides.

(PEG12)KRRLLGLVFQSLCG(dA) (KRRLLGLVFQSLCGA; N-terminal PEG12; C-terminal D-alanine; (1)..(1) PEG12; (15)..(15) D-Ala) [SEQ ID NO: 37]
Mean (SEM) Alveolar Neutrophil Infiltration Score ([1]; 0-5 scale): 1.50 (0.14)
Mean (SEM) Interstitial Neutrophil Infiltration Score ([1]; 0-5 scale): 1.30 (0.11)
Mean (SEM) Composite Lung Injury Score [1]: 2.83 (0.23)
pMEK1 (% of Positive Control) ([2]; 2.0 μM peptide): 8.7%
pMEK1 (% of Positive Control) ([2]; 10 μM peptide): 45.5%
pMEK1 (% of Positive Control) ([2]; 50 μM peptide): 79.4%
Mean (SEM) Lung Weight [3]: 0.259 (0.004)*** g
Pro-inflammatory Cytokine Level IFNγ ([3]; BALF): 0.13 pg/mL
Pro-inflammatory Cytokine Level IL-1β ([3]; BALF): 72.5 pg/mL
Pro-inflammatory Cytokine Level IL-2 ([3]; BALF): 0.60 pg/mL
Pro-inflammatory Cytokine Level IL-4 ([3]; BALF): 0.86 pg/mL
Pro-inflammatory Cytokine Level IL-6 ([3]; BALF): 3080 pg/mL
Pro-inflammatory Cytokine Level IL-9 ([3]; BALF): 4.74 pg/mL
Pro-inflammatory Cytokine Level KC/GRO ([3]; BALF): 2660 pg/mL
Pro-inflammatory Cytokine Level TNFα ([3]; BALF): 3850 pg/mL
